This note sets out measurements from ChEMBL document CHEMBL1145395, “De novo design of selective antibiotic peptides by incorporation of unnatural amino acids” (J Med Chem, 2007).

Active and inactive are the calls of the source. No cut-off for these calls is given here. Non-standard residues stand in square brackets, D forms with d. Residues, ends and D or L forms follow the SMILES beside them. ξ: configuration not given here. Pro(3ξ,4ξ-(CH2)4) = O=C(O)[C@H]1NCC2CCCCC21; Tic = O=C(O)[C@@H]1Cc2ccccc2CN1

What all share (type): functional
One assay relates to Mycobacterium. Description: Antibacterial activity against Mycobacterium ranae ATCC 110.
Another assay concerns Salmonella typhimurium. The experiment in a line: Antibacterial activity against Salmonella Typhimurium ATCC 13311. The following applies: Salmonella enterica subsp. enterica serovar Typhimurium.
A further assay has as its system Staphylococcus aureus. The experiment in a line: Antibacterial activity against methicillin/gentamicin/tetracycline resistant Staphylococcus aureus ATCC 33592.

`CC(C)C[C@@H](NC(=O)CNC(=O)[C@H](CCCCN)NC(=O)CN)C(=O)N1Cc2ccccc2C[C@H]1C(=O)N1CC2CCCCC2[C@H]1C(=O)N[C@@H](Cc1ccccc1)C(=O)N[C@@H](CCCN)C(=O)N1Cc2ccccc2C[C@H]1C(=O)N1CC2CCCCC2[C@H]1C(=O)N[C@H](CCCCN)C(=O)N[C@@H](Cc1ccccc1)C(=O)N1Cc2ccccc2C[C@H]1C(=O)N1CC2CCCCC2[C@H]1C(=O)N[C@@H](Cc1ccccc1)C(=O)N[C@@H](CCCCN)C(=O)N1Cc2ccccc2C[C@H]1C(=O)N1CC2CCCCC2[C@H]1C(=O)N[C@@H](CCCCN)C(=O)N[C@@H](Cc1ccccc1)C(=O)N1Cc2ccccc2C[C@H]1C(=O)N1CC2CCCCC2[C@H]1C(=O)N[C@H](Cc1ccccc1)C(=O)N[C@@H](CCCCN)C(=O)N1Cc2ccccc2C[C@H]1C(=O)N1CC2CCCCC2[C@H]1C(=O)N[C@@H](Cc1ccccc1)C(=O)N[C@@H](CCCCN)C(=O)N[C@@H](CCCNC(=N)N)C(N)=O` (stereo partly drawn): the outcome in the assay with Mycobacterium was inactive. In the case of `CC(C)C[C@H](NC(=O)CNC(=O)[C@H](CCCCN)NC(=O)CN)C(=O)N1Cc2ccccc2C[C@H]1C(=O)N1CC2CCCCC2[C@H]1C(=O)NCC(=O)N[C@@H](CCCNC(=N)N)C(=O)N1Cc2ccccc2C[C@H]1C(=O)N1CC2CCCCC2[C@H]1C(=O)NCC(=O)N[C@@H](Cc1ccccc1)C(=O)N1Cc2ccccc2C[C@H]1C(=O)N1CC2CCCCC2[C@H]1C(=O)NCC(=O)N[C@@H](CCCNC(=N)N)C(=O)N1Cc2ccccc2C[C@H]1C(=O)N1CC2CCCCC2[C@H]1C(=O)NCC(=O)N[C@@H](Cc1ccccc1)C(=O)N1Cc2ccccc2C[C@H]1C(=O)N1CC2CCCCC2[C@H]1C(=O)NCC(=O)N[C@@H](CCCNC(=N)N)C(=O)N1Cc2ccccc2C[C@H]1C(=O)N1CC2CCCCC2[C@H]1C(=O)NCC(=O)N[C@@H](CCCCN)C(=O)N[C@@H](CCCNC(=N)N)C(N)=O` (stereo partly drawn) (H-GKGL[Tic][Pro(3ξ,4ξ-(CH2)4)]GR[Tic][Pro(3ξ,4ξ-(CH2)4)]GF[Tic][Pro(3ξ,4ξ-(CH2)4)]GR[Tic][Pro(3ξ,4ξ-(CH2)4)]GF[Tic][Pro(3ξ,4ξ-(CH2)4)]GR[Tic][Pro(3ξ,4ξ-(CH2)4)]GKR-NH2), the result with Mycobacterium was inactive. Turning to `CSCC[C@H](NC(=O)[C@H](CC(C)C)NC(=O)[C@H](CCC(=O)O)NC(=O)[C@@H]1CCCN1C(=O)[C@@H]1C2CCCCC2CN1C(=O)[C@H](CCCCN)NC(=O)CNC(=O)[C@H](CC(C)C)NC(=O)CNC(=O)[C@@H]1CCCN1C(=O)[C@@H]1C2CCCCC2CN1C(=O)[C@H](CCCCN)NC(=O)CNC(=O)[C@H](CC(C)C)NC(=O)CNC(=O)[C@@H]1CCCN1C(=O)[C@@H]1C2CCCCC2CN1C(=O)[C@H](CCSC)NC(=O)[C@H](CCCCN)NC(=O)CN)C(=O)NCC(=O)N[C@@H](CCCNC(=N)N)C(N)=O` (stereo partly drawn) (H-GKM[Pro(3ξ,4ξ-(CH2)4)]PGLGK[Pro(3ξ,4ξ-(CH2)4)]PGLGK[Pro(3ξ,4ξ-(CH2)4)]PELMGR-NH2), the outcome with Salmonella typhimurium and in the assay on Staphylococcus aureus was inactive. For `CSCC[C@H](NC(=O)[C@H](CC(C)C)NC(=O)[C@H](CCC(=O)O)NC(=O)[C@@H]1Cc2ccccc2CN1C(=O)[C@H](CCCCN)NC(=O)CNC(=O)[C@H](CC(C)C)NC(=O)CNC(=O)[C@@H]1Cc2ccccc2CN1C(=O)[C@H](CCCCN)NC(=O)CNC(=O)[C@H](CC(C)C)NC(=O)CNC(=O)[C@@H]1Cc2ccccc2CN1C(=O)[C@H](CCSC)NC(=O)[C@H](CCCCN)NC(=O)CN)C(=O)NCC(=O)N[C@@H](CCCNC(=N)N)C(N)=O` (H-GKM[Tic]GLGK[Tic]GLGK[Tic]ELMGR-NH2), the outcome in the assay with Salmonella typhimurium and in the assay on Staphylococcus aureus was inactive. With `CSCC[C@H](NC(=O)[C@H](CC(C)C)NC(=O)[C@H](CCC(=O)O)NC(=O)[C@@H]1CCCN1C(=O)[C@@H]1Cc2ccccc2CN1C(=O)[C@H](CCCCN)NC(=O)CNC(=O)[C@H](CC(C)C)NC(=O)CNC(=O)[C@@H]1CCCN1C(=O)[C@@H]1Cc2ccccc2CN1C(=O)[C@H](CCCCN)NC(=O)CNC(=O)[C@H](CC(C)C)NC(=O)CNC(=O)[C@@H]1CCCN1C(=O)[C@@H]1Cc2ccccc2CN1C(=O)[C@H](CCSC)NC(=O)[C@H](CCCCN)NC(=O)CN)C(=O)NCC(=O)N[C@@H](CCCNC(=N)N)C(N)=O` (H-GKM[Tic]PGLGK[Tic]PGLGK[Tic]PELMGR-NH2), the result in the assay on Salmonella typhimurium and in the assay on Staphylococcus aureus was inactive.
